The source made the active and inactive calls. For most assays here, no stated cut-off is given here; in the data, actives have a measured Kd and inactives only a lower limit.
Legend:
[1] = target: RAC-alpha serine/threonine-protein kinase (Homo sapiens, UniProt P31749)
[2] = target: BMP-2-inducible protein kinase (Homo sapiens, UniProt Q9NSY1)
[3] = target: Tyrosine-protein kinase CSK (Homo sapiens, UniProt P41240)
[4] = target: Casein kinase II subunit alpha' (Homo sapiens, UniProt P19784)
Ephrin type-A receptor 5 = Ephrin type-A receptor 5 (Homo sapiens, UniProt P54756)
Ephrin type-A receptor 7 = Ephrin type-A receptor 7 (Homo sapiens, UniProt Q15375)
[5] = target: Tyrosine-protein kinase Fer (Homo sapiens, UniProt P16591)
[6] = target: T1, Inhibitor of nuclear factor kappa-B kinase subunit epsilon (Homo sapiens, UniProt Q14164)
T1 sequence (Q14164 whole entry): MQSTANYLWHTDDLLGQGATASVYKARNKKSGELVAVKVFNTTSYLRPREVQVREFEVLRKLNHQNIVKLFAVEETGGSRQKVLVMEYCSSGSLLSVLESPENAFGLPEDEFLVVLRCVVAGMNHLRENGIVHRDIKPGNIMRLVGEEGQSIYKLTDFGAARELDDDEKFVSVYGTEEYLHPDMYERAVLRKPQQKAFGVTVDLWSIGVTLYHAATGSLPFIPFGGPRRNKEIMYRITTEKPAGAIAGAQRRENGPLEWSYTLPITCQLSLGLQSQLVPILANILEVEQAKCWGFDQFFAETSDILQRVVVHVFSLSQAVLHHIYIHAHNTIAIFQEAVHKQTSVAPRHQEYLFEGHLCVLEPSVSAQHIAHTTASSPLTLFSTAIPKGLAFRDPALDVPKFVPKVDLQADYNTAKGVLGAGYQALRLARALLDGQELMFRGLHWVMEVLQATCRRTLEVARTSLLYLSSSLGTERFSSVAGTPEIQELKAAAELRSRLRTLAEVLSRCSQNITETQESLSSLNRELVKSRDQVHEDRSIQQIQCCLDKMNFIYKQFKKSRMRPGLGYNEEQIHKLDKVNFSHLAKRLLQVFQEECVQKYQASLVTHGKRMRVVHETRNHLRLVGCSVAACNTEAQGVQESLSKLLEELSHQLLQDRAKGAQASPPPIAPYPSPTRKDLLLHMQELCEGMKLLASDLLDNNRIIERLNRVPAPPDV

[7] = target: MAP/microtubule affinity-regulating kinase 3 (Homo sapiens, UniProt P27448)
[8] = target: S-adenosylmethionine synthase isoform type-2 (Homo sapiens, UniProt P31153)
[9] = target: T2, Phosphorylase b kinase gamma catalytic chain, liver/testis isoform (Homo sapiens, UniProt P15735)
T2 sequence (P15735 whole entry): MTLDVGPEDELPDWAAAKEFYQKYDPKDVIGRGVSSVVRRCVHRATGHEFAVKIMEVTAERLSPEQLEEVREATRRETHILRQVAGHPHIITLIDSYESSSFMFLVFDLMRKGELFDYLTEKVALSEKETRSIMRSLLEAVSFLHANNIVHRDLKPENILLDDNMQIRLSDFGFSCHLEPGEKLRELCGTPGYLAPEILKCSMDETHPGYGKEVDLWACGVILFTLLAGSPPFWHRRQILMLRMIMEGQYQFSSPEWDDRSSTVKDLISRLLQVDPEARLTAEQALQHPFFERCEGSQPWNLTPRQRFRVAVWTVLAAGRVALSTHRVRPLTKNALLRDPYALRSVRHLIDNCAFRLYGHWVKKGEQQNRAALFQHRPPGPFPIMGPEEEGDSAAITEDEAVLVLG

[10] = target: Serine/threonine-protein kinase pim-1 (Homo sapiens, UniProt P11309)
[11] = target: T3, Membrane-associated tyrosine- and threonine-specific cdc2-inhibitory kinase (Homo sapiens, UniProt Q99640)
T3 sequence (Q99640 whole entry): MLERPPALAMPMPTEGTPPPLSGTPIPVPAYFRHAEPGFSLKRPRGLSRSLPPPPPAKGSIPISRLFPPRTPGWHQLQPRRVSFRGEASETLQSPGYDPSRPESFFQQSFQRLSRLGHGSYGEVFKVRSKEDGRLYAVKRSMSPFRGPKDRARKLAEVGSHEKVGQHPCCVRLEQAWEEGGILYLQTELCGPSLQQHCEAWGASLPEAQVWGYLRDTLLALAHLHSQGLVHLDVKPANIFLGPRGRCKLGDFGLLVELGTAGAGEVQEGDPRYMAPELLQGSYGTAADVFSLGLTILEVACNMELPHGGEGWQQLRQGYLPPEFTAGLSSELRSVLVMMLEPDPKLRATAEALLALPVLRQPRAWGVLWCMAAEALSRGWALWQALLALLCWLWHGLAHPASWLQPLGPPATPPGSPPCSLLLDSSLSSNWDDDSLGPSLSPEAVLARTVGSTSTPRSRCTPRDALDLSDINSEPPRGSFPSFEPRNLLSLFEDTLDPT

[12] = target: Rho-associated protein kinase 2 (Homo sapiens, UniProt O75116)
[13] = target: Proto-oncogene tyrosine-protein kinase Src (Homo sapiens, UniProt P12931)
[14] = target: Elongation factor Tu, mitochondrial (Homo sapiens, UniProt P49411)

Sequence of Serine/threonine-protein kinase pim-1 (P11309 whole entry): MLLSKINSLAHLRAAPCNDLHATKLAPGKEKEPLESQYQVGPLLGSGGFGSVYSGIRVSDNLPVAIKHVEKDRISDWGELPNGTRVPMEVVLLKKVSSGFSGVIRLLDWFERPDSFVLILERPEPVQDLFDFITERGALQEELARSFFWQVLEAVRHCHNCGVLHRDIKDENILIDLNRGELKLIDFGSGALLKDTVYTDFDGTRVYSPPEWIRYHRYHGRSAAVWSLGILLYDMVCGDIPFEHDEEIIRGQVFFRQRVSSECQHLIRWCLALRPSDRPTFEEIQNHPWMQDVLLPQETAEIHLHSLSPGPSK
Sequence of Ephrin type-A receptor 7 (Q15375 whole entry): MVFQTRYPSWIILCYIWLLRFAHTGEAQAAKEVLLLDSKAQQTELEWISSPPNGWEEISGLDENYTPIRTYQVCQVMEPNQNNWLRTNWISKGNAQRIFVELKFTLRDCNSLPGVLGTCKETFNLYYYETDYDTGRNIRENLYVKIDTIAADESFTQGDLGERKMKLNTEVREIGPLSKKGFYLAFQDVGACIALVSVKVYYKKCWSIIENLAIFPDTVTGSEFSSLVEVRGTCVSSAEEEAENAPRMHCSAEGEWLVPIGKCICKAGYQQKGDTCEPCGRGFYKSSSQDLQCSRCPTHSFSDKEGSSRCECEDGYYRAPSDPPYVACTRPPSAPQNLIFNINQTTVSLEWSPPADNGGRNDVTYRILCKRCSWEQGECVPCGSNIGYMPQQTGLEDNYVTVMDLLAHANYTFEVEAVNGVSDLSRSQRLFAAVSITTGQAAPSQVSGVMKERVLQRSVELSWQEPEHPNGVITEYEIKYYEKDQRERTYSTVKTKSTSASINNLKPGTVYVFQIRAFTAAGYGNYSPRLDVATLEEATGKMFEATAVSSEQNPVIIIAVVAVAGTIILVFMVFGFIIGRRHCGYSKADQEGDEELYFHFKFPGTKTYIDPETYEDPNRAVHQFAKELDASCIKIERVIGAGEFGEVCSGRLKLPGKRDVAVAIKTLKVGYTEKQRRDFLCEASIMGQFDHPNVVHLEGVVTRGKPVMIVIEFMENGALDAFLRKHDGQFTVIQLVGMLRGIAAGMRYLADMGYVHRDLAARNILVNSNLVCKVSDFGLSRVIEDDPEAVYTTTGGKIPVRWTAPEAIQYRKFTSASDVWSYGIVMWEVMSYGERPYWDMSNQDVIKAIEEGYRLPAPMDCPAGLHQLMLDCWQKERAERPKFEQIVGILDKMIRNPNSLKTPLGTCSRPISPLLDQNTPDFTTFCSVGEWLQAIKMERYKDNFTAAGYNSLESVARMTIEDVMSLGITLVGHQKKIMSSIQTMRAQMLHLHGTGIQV
Sequence of Ephrin type-A receptor 5 (P54756 whole entry): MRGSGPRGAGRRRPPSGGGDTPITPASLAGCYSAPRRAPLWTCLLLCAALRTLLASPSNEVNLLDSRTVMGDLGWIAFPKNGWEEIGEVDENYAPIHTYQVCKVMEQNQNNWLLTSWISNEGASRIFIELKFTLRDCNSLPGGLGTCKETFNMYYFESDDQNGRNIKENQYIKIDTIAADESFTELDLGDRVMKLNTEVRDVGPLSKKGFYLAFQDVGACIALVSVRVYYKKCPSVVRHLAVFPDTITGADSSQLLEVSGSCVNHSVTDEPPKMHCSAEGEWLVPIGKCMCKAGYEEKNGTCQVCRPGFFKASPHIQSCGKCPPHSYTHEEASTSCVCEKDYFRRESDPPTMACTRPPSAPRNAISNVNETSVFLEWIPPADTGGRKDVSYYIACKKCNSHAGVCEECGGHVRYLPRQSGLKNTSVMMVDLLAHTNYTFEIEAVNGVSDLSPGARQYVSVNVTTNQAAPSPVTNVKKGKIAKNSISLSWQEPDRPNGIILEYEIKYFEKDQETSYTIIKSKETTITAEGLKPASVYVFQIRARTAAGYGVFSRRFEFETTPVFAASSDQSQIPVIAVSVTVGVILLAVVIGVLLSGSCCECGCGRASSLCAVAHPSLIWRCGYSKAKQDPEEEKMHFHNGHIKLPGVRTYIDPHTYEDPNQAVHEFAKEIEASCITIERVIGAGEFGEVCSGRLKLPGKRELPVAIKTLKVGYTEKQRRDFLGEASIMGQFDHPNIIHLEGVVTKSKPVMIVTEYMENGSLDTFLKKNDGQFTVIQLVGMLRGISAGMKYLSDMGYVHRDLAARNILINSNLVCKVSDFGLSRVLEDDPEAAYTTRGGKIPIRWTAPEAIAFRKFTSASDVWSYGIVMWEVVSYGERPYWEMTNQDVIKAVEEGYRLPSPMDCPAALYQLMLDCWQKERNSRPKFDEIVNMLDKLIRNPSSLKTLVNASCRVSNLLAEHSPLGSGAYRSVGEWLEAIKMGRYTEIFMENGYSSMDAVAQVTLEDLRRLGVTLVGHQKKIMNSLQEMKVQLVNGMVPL
Sequence of Tyrosine-protein kinase Fer (P16591 whole entry): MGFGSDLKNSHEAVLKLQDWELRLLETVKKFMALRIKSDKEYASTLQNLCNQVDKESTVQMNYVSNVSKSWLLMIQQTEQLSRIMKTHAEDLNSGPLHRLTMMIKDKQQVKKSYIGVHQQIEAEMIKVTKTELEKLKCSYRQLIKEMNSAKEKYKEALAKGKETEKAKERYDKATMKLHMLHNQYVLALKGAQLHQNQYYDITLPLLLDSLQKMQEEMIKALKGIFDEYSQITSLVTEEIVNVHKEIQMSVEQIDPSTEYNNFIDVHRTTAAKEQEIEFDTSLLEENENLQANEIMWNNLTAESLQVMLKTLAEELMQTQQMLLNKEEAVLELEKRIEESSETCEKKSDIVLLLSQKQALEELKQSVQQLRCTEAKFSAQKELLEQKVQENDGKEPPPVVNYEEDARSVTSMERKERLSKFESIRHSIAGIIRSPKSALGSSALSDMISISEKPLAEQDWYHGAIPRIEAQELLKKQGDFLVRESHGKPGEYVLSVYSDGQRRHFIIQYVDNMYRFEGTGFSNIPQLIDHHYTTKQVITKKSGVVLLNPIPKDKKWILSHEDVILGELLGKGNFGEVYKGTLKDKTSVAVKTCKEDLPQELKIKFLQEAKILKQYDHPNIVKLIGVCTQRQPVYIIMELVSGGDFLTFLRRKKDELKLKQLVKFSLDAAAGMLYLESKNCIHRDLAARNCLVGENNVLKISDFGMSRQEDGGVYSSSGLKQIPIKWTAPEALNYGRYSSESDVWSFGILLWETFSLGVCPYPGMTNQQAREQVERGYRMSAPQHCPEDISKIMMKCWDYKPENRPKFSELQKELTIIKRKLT
Sequence of Proto-oncogene tyrosine-protein kinase Src (P12931 2-536 limits assumed): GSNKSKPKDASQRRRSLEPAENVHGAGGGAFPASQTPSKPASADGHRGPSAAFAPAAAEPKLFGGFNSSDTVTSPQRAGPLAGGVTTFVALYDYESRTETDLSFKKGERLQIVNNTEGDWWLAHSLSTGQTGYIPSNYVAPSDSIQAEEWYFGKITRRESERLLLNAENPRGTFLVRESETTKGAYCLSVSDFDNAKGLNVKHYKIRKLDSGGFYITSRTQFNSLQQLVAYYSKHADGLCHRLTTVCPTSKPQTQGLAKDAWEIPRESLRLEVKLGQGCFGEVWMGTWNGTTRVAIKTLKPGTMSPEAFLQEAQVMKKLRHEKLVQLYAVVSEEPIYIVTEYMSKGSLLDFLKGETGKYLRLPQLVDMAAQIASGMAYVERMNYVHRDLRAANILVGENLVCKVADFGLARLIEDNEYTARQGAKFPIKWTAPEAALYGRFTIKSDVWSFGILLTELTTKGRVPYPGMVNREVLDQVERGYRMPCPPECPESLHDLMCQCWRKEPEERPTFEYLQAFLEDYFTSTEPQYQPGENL
Sequence of BMP-2-inducible protein kinase (Q9NSY1 whole entry): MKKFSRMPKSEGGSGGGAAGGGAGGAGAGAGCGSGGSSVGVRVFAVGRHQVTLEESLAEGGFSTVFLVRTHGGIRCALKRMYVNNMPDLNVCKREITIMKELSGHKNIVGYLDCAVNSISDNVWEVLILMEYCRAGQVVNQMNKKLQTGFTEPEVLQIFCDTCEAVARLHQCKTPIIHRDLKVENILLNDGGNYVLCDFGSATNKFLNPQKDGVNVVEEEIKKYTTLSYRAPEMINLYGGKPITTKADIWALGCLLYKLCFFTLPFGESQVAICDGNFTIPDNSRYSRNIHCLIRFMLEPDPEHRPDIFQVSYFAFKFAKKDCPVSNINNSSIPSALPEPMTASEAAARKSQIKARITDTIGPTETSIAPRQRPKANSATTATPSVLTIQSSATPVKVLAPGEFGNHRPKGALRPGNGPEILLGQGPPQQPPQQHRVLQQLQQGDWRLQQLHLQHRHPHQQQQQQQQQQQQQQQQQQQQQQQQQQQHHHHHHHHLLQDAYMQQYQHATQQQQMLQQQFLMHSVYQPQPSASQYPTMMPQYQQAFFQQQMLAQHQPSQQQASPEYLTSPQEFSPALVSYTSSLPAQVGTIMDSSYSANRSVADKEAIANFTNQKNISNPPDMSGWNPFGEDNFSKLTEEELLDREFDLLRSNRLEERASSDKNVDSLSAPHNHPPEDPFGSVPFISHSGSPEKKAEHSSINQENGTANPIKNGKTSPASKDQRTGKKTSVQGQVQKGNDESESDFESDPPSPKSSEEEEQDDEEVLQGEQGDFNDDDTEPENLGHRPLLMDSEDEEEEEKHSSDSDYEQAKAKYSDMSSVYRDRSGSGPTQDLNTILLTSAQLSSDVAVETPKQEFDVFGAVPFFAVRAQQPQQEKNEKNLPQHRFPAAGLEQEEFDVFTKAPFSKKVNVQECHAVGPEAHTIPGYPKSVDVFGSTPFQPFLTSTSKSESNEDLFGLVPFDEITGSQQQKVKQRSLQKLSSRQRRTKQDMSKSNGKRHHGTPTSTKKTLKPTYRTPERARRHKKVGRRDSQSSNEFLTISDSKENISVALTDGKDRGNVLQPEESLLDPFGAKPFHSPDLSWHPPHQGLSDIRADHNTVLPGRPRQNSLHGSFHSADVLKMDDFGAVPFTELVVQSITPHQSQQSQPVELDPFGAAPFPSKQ

Row | Compound | Kd [1] | Kd [2] | Kd [3] | Kd [4] | Kd (Ephrin type-A receptor 5) | Kd (Ephrin type-A receptor 7) | Kd [5] | Kd [6] | Kd [7] | Kd [8] | Kd [9] | Kd [10] | Kd [11] | Kd [12] | Kd [13] | Kd [14]
1 | COc1cc(Nc2ncc(F)c(Nc3ccc4c(n3)N(COP(=O)(O)O)C(=O)C(C)(C)O4)n2)cc(OC)c1OC [FOSTAMATINIB] | > 30 µM (inactive) | > 30 µM (inactive) | > 30 µM (inactive) | > 30 µM (inactive) | > 30 µM (inactive) | > 30 µM (inactive) | > 30 µM (inactive) | 1.32 µM (active) | > 30 µM (inactive) | > 30 µM (inactive) | > 30 µM (inactive) | > 30 µM (inactive) | > 30 µM (inactive) | > 30 µM (inactive) | > 30 µM (inactive) | > 30 µM (inactive)
2 | Cc1c(Cn2c(C)nc3c(C(=O)O)cc(N4CCOCC4)cc32)cccc1C(F)(F)F [GSK-2636771] | > 30 µM (inactive) | > 30 µM (inactive) | > 30 µM (inactive) | > 30 µM (inactive) | > 30 µM (inactive) | > 30 µM (inactive) | > 30 µM (inactive) | > 30 µM (inactive) | > 30 µM (inactive) | > 30 µM (inactive) | > 30 µM (inactive) | > 30 µM (inactive) | > 30 µM (inactive) | > 30 µM (inactive) | > 30 µM (inactive) | > 30 µM (inactive)
3 | C#Cc1cccc(Nc2ncnc3cc4c(cc23)OCCOCCOCCO4)c1 [ICOTINIB] | > 30 µM (inactive) | > 30 µM (inactive) | > 30 µM (inactive) | > 30 µM (inactive) | > 30 µM (inactive) | > 30 µM (inactive) | > 30 µM (inactive) | > 30 µM (inactive) | > 30 µM (inactive) | > 30 µM (inactive) | > 30 µM (inactive) | > 30 µM (inactive) | > 30 µM (inactive) | > 30 µM (inactive) | > 30 µM (inactive) | > 30 µM (inactive)
4 | COc1cc2ncnc3c2cc1OCCCCCN(C)Cc1ccc(Br)cc1N3 [JNJ-26483327] | > 30 µM (inactive) | > 30 µM (inactive) | > 30 µM (inactive) | > 30 µM (inactive) | > 30 µM (inactive) | > 30 µM (inactive) | > 30 µM (inactive) | > 30 µM (inactive) | > 30 µM (inactive) | > 30 µM (inactive) | > 30 µM (inactive) | > 30 µM (inactive) | > 30 µM (inactive) | > 30 µM (inactive) | > 30 µM (inactive) | > 30 µM (inactive)
5 | Cc1ccc(C(=O)Nc2ccc(Oc3cc4cnn(C)c4cc3-c3cn[nH]c3)c(F)c2)c(=O)n1-c1ccc(F)cc1 [MERESTINIB] | > 30 µM (inactive) | > 30 µM (inactive) | > 30 µM (inactive) | > 30 µM (inactive) | > 30 µM (inactive) | > 30 µM (inactive) | > 30 µM (inactive) | > 30 µM (inactive) | > 30 µM (inactive) | > 30 µM (inactive) | > 30 µM (inactive) | > 30 µM (inactive) | > 30 µM (inactive) | > 30 µM (inactive) | > 30 µM (inactive) | > 30 µM (inactive)
6 | COc1cccc2cc(-c3nc([C@H]4CC[C@H](C(=O)O)CC4)n4ncnc(N)c34)[nH]c12 [OSI-027] | > 30 µM (inactive) | > 30 µM (inactive) | > 30 µM (inactive) | 1.6 µM (active) | > 30 µM (inactive) | > 30 µM (inactive) | > 30 µM (inactive) | > 30 µM (inactive) | > 30 µM (inactive) | > 30 µM (inactive) | > 30 µM (inactive) | > 30 µM (inactive) | > 30 µM (inactive) | > 30 µM (inactive) | > 30 µM (inactive) | > 30 µM (inactive)
7 | O=C(Nc1ccc(OC(F)(F)F)cc1)c1sccc1NCc1ccnc2ccccc12 [OSI-930] | > 30 µM (inactive) | > 30 µM (inactive) | > 30 µM (inactive) | > 30 µM (inactive) | > 30 µM (inactive) | > 30 µM (inactive) | > 30 µM (inactive) | > 30 µM (inactive) | > 30 µM (inactive) | > 30 µM (inactive) | > 30 µM (inactive) | > 30 µM (inactive) | > 30 µM (inactive) | > 30 µM (inactive) | > 30 µM (inactive) | > 30 µM (inactive)
8 | C=CC(=O)Nc1cc(Nc2nccc(-c3cn(C)c4ccccc34)n2)c(OC)cc1N(C)CCN(C)C [OSIMERTINIB] | > 30 µM (inactive) | > 30 µM (inactive) | > 30 µM (inactive) | > 30 µM (inactive) | > 30 µM (inactive) | > 30 µM (inactive) | > 30 µM (inactive) | > 30 µM (inactive) | > 30 µM (inactive) | > 30 µM (inactive) | > 30 µM (inactive) | > 30 µM (inactive) | > 30 µM (inactive) | > 30 µM (inactive) | > 30 µM (inactive) | > 30 µM (inactive)
9 | COc1cc(F)c(F)c(Nc2ccc(I)cc2F)c1NS(=O)(=O)C1(C[C@H](O)CO)CC1 [REFAMETINIB] | > 30 µM (inactive) | > 30 µM (inactive) | > 30 µM (inactive) | > 30 µM (inactive) | > 30 µM (inactive) | > 30 µM (inactive) | > 30 µM (inactive) | > 30 µM (inactive) | > 30 µM (inactive) | > 30 µM (inactive) | > 30 µM (inactive) | > 30 µM (inactive) | > 30 µM (inactive) | > 30 µM (inactive) | > 30 µM (inactive) | > 30 µM (inactive)
10 | COCCN1CCN(Cc2ccc(-c3n[nH]c4c3C(=O)c3c(NC(=O)NN5CCOCC5)cccc3-4)cc2)CC1 [RGB-286638] | > 30 µM (inactive) | 0.008 µM (active) | > 30 µM (inactive) | 0.008 µM (active) | > 30 µM (inactive) | > 30 µM (inactive) | > 30 µM (inactive) | 1.9 µM (active) | > 30 µM (inactive) | > 30 µM (inactive) | > 30 µM (inactive) | > 30 µM (inactive) | > 30 µM (inactive) | > 30 µM (inactive) | > 30 µM (inactive) | > 30 µM (inactive)
11 | C=CC(=O)Nc1cccc(Nc2nc(Nc3ccc(N4CCN(C(C)=O)CC4)cc3OC)ncc2C(F)(F)F)c1 [ROCILETINIB] | > 30 µM (inactive) | > 30 µM (inactive) | > 30 µM (inactive) | > 30 µM (inactive) | > 30 µM (inactive) | > 30 µM (inactive) | 1.11 µM (active) | > 30 µM (inactive) | > 30 µM (inactive) | > 30 µM (inactive) | > 30 µM (inactive) | > 30 µM (inactive) | > 30 µM (inactive) | > 30 µM (inactive) | > 30 µM (inactive) | > 30 µM (inactive)

Source: ChEMBL document CHEMBL3991601, “The target landscape of clinical kinase drugs” (Science, 2017)
